The record followed here is ChEMBL document CHEMBL5523680, “Small molecule modulators of cystic fibrosis transmembrane conductance regulator (CFTR): Structure, classification, and mechanisms” (Eur J Med Chem, 2024).

Each structure is given as a SMILES string.

As a reminder, the EC50 is the concentration at which the effect is half-maximal.

Experiment [1] concerns Cystic fibrosis transmembrane conductance regulator (Homo sapiens), P13569 [G551D]. Briefly: Potentiation of CFTR G551D mutant (unknown origin) expressed in FRT cells assessed as increase in chloride current in presence of VX-770 relative to control. As to conditions: filed as activator. Type of experiment: cell-based.
Sequence of Cystic fibrosis transmembrane conductance regulator (Homo sapiens), P13569 [G551D] (P13569 whole entry G551D): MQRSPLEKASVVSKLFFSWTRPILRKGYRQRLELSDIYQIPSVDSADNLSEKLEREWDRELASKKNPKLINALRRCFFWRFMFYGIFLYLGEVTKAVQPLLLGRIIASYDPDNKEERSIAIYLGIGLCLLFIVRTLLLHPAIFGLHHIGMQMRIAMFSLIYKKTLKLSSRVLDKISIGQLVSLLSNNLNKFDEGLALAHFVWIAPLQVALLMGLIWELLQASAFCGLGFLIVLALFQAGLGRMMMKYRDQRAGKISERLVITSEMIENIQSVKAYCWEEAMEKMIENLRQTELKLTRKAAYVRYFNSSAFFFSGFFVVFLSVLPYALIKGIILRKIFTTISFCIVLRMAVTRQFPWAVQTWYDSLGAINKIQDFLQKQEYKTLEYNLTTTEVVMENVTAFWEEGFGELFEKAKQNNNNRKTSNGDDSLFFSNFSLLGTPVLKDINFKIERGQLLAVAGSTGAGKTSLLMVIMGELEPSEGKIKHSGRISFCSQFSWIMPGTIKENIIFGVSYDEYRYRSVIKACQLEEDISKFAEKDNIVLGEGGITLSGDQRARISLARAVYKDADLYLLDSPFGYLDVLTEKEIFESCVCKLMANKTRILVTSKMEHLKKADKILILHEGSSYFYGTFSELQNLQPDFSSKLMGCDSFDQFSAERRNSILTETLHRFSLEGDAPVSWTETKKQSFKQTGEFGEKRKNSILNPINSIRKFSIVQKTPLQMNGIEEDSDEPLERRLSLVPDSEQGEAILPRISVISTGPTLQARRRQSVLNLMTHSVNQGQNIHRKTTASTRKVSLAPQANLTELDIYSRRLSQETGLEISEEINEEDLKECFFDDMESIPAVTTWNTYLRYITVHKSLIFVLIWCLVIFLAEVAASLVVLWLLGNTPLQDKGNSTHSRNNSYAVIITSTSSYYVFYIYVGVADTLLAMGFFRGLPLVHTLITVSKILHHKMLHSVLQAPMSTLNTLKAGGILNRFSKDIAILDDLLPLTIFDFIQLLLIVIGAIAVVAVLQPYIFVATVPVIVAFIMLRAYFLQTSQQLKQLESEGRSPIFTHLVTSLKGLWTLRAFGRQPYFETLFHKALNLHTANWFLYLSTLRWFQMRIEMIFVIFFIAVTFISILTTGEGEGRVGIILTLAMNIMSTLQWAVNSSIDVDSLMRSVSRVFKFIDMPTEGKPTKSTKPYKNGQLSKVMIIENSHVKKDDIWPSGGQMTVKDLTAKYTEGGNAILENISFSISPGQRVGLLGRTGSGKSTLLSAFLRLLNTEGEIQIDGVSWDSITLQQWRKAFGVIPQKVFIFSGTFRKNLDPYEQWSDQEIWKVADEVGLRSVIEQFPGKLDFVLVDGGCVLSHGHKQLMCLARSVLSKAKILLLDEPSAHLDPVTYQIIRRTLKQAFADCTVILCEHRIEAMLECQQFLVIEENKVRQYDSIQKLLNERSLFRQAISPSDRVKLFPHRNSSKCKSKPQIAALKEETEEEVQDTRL
The target of experiment [2] is T1, Cystic fibrosis transmembrane conductance regulator (Homo sapiens, UniProt P13569, N1303K). The experiment is described as follows: Potentiation of CFTR N1303K mutant (unknown origin) transfected in […] FRT cells in presence of forskolin/VX-770. Type of experiment: cell-based.
T1 sequence (P13569 whole entry N1303K): as the sequence (P13569 whole entry G551D) above, with D551G, N1303K counted along it
The target of experiment [3] is Cystic fibrosis transmembrane conductance regulator (Homo sapiens, UniProt P13569, W1282X). The experiment is described as follows: Potentiation of CFTR W1282X mutant (unknown origin) transfected in […] FRT cells in presence of forskolin/VX-770. Type of experiment: cell-based.
Experiment [4] deals with T2, Cystic fibrosis transmembrane conductance regulator (Homo sapiens, UniProt P13569, F508DEL). The experiment is described as follows: Activation of CFTR F508del mutant (unknown origin).
T2 sequence (P13569 as listed by the source): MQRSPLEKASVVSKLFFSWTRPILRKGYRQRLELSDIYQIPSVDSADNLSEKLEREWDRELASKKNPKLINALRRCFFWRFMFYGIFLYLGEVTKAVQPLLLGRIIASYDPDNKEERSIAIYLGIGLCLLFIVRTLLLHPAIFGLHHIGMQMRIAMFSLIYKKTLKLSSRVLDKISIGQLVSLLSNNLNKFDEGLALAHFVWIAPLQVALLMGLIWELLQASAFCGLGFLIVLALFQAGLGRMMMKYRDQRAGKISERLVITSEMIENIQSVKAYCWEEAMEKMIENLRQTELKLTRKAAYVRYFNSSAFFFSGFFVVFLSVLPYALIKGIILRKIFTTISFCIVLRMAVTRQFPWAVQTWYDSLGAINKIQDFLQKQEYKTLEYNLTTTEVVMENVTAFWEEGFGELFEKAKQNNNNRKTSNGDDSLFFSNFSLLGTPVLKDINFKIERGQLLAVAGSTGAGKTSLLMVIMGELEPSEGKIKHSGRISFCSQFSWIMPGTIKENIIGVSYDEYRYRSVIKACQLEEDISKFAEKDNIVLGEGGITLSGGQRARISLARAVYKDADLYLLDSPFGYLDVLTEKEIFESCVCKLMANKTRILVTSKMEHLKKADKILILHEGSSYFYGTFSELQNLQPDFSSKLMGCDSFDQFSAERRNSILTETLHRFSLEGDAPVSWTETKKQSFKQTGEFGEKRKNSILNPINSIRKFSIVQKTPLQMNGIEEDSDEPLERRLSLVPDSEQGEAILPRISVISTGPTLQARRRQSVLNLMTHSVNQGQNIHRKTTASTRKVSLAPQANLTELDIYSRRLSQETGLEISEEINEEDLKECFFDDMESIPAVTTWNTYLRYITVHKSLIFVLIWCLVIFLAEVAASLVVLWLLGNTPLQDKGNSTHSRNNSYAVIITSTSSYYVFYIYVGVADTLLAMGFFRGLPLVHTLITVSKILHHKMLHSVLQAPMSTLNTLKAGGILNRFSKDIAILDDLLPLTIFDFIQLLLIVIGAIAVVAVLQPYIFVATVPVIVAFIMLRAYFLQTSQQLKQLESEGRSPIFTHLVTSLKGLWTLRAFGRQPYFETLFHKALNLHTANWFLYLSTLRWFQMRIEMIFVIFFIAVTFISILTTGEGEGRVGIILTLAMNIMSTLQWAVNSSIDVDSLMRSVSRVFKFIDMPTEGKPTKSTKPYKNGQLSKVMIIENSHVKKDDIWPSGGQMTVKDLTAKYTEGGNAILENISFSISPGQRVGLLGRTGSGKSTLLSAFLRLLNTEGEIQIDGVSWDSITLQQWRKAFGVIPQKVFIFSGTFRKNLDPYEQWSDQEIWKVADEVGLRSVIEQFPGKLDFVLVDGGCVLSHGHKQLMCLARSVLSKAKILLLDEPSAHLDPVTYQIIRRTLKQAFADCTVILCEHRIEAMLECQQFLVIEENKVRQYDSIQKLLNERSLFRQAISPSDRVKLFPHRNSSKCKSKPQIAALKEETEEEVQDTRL
Experiment [5] addresses T2, Cystic fibrosis transmembrane conductance regulator. Briefly: Potentiation of CFTR F508del mutant (unknown origin) expressed in NIH3T3 cells. Type of experiment: cell-based.
The target in experiment [6] is T1, Cystic fibrosis transmembrane conductance regulator. The experiment is described as follows: Potentiation of CFTR N1303K mutant (unknown origin) expressed in FRT cells assessed as increase in CFTR mutant activity. Type of experiment: cell-based.
The target of experiment [7] is Cystic fibrosis transmembrane conductance regulator (Homo sapiens, UniProt P13569, G551D). The experiment is described as follows: Potentiation of CFTR G551D mutant (unknown origin) expressed in FRT cells. It is filed as cell-based.
Sequence of Cystic fibrosis transmembrane conductance regulator (Homo sapiens, UniProt P13569, G551D) (P13569 whole entry G551D): as the sequence (P13569 whole entry G551D) above
The target in experiment [8] is T2, Cystic fibrosis transmembrane conductance regulator. Briefly: Potentiation of CFTR F508del mutant (unknown origin) in FRT cells assessed as rescue of CFTR mutant incubated for 24 hrs in presence of VX-770. Type of experiment: cell-based.
The target is the same in experiment [9]. The experiment is described as follows: Corrector activity at […] CFTR F508del mutant (unknown origin) expressed in BHK cells assessed as increase in chloride secretion […]. Type of experiment: cell-based. On the technique in general: Immunoblotting shows a protein as a band on a membrane.

Consider `CCCCN1CC(S(=O)(=O)Nc2ccc(CC)cc2)c2cccnc21` (stereo unspecified), for which the Activity in experiment [1] stood at 65%. Further, the values for the EC50 in experiment [2] and in experiment [3] were 1.9 µM and 1 µM, respectively.

`OC(C1=CNNN1c1ccc(Br)cc1)c1ccccc1Br` (stereo unspecified) displayed an EC50 in experiment [4] of 4.2 µM.

Turning to `CC(C)(CO)c1cc2cc(NC(=O)C3(c4ccc5c(c4)OC(F)(F)O5)CC3)c(F)cc2n1C[C@@H](O)CO` [TEZACAFTOR], the EC50 in experiment [5] is 1.1 µM.

As to `O=c1cc(-c2ccc(O)cc2)oc2cc(O)cc(O)c12` [APIGENIN], the EC50 in experiment [6] was found to be 10.8 µM.

As for `OC(C1=NC(c2ccc(Br)cc2)NN1)c1ccc(Br)cc1` (stereo unspecified), the EC50 in [4] was 2.7 µM.

`O=P(O)(CCP(=O)(O)c1ccccc1)c1ccccc1`: the EC50 in [4] worked out at 1 µM.

Consider `O=C(Nc1ccc2cc[nH]c2c1)c1c[nH]c2ccccc2c1=O`, for which the half-maximal effective concentration (EC50) in [7] is 0.1 µM.

Take `OC(C1=NC(c2ccc(Br)cc2)NN1)c1ccccc1Br` (stereo unspecified): the EC50 in experiment [4] is 3 µM.

Turning to `Cc1ncccc1CNC(=O)c1ccc2c(c1)CC[C@@H]1C[C@@](O)(CCC(F)(F)F)CC[C@@]21Cc1ccccc1`, the EC50 in [8] stood at 0.4 µM.

In the case of `COc1ccc(S(=O)(=O)N2CCN(C(C)c3nc(OC4CCCCC4)c4ccccc4n3)CC2)cc1` (stereo unspecified), the EC50 in experiment [5] is 3.3 µM.

In experiment [4], `Cc1ccc(S(=O)(=O)Nc2nc3ccccc3nc2C2CCOCC2)cc1` came in with an EC50 of 0.93 µM.

For the compound `O=C(Nc1ncc(Cc2ccccc2Cl)s1)C(c1ccccc1)c1ccccc1`, the EC50 was determined as 0.081 µM in experiment [9] and 7 µM in experiment [5].

`OCc1cccc(N2C=CN(c3ccccc3)N2)c1` had a half-maximal effective concentration (EC50) in experiment [4] of 1.9 µM.
